We go through 27 compounds from US12479818B2, “Treatment of fibrosis with IRE1 small molecule inhibitors” (Cornell University, priority 2019, dated 2025).

The structures appear in SMILES notation. Bounds are passed on as bounds.

For this experiment, the target named is IRE1a (Homo sapiens, UniProt O75460). In words: IRE1a Endoribonuclease Nanoluciferase Assay (XBP1 luciferase reporter in 293T cells). The note with it: XBP1 nanoluciferase reporter in 293T cells, ER stressor; tested as the salt named. It is filed as cell-based. Details: endogenous in cells; host or cells: 293T. On the procedure:
Compounds disclosed herein were assessed for disruption of IRE1 signaling using a IRE1a Endoribonuclease Nanoluciferase Assay. […] About 24 hours later, the cells were transfected with Effectene. In a 15 mL tube, the following was added: 2 ug XBP1 luciferase reporter plasmid (PGK-Luc2-P2A-XBP1u-Nanoluciferase-PEST); 300 ul EC buffer; and 16 ul Enhancer, followed by incubation at room temp for 5 minutes. […] 2.6 mL cDMEM media was added. Old media was aspirated from the cells, followed by addition of 7 mL fresh media. Full transfection mixture was added dropwise to cells. Cells were incubated for 6 hours, followed by trypsinization, centrifugation and resuspension in 11 mL fresh cDMEM media. 100 μL of cells were plated per a well in a 96 well plate. A day later, ER stressors of choice +/− inhibitors were added. To harvest, media was aspirated from cells completely, then 50 uL 1× passive lysis buffer (Promega: E1941) was added per well and put on shaker (300 rpm) for 30 minutes at room temperature. […] 15 uL OneGlo (nanoluciferase kit, Promega N1630) was added. Plates were spun down, placed on shaker (300 rpm) for 10 minutes. Plates were read on luminometer, 1000 ms integration time per well. 15 uL Stop and Glo (nanoluciferase kit) was added. Plates were spun down, placed on shaker (300 rpm) for 10 minutes. Plates were read on luminometer, 1000 ms second integration time per well.
For orientation: In a reporter assay the amount or activity of a reporter protein is the signal.

Sequence of IRE1a (O75460 19-977): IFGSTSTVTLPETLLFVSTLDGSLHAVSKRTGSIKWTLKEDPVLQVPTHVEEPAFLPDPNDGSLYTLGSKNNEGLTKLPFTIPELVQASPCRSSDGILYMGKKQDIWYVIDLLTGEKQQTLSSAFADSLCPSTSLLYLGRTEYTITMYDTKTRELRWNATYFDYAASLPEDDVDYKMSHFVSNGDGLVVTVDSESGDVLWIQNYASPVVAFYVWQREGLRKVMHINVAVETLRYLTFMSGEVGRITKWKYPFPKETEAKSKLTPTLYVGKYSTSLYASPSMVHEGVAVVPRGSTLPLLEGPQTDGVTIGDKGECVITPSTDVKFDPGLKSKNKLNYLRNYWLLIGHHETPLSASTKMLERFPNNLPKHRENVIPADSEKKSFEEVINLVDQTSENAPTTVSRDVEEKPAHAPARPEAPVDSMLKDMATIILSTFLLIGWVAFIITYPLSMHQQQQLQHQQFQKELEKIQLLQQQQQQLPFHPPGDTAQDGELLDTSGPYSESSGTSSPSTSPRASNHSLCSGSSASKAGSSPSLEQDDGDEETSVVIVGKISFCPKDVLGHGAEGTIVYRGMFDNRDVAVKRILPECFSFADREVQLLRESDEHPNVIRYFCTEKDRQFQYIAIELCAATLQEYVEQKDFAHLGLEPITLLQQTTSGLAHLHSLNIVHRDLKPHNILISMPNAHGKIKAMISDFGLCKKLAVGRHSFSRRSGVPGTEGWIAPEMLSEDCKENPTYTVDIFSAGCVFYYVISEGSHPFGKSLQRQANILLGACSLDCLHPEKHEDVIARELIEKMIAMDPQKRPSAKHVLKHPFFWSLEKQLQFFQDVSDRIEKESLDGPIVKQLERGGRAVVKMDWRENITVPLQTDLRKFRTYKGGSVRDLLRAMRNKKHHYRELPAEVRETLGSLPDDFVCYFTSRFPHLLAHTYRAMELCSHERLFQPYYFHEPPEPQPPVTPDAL

On to `CCc1cc(-c2cnc(NS(=O)(=O)c3ccccc3Cl)nc2C)cc2cnc(N[C@H]3CC[C@H](N)CC3)nc12` [Compound 23, N-(5-(2-(((1r,4r)-, 4-aminocyelohexyl)amino)-8-ethylquinazolin-6-yl)-4-methylpyrimidin-2-yl)-2-ehlorobenzene-sulfonamide], for which the half-maximal effective concentration (EC50) (usually the concentration needed to bring the measured effect to its halfway point) is < 5 nM.
As to `CCc1cc(-c2ccc(NS(=O)(=O)c3ccccc3Cl)c(F)c2)cc2cnc(N[C@H]3CC[C@H](N)CC3)nc12` [Compound 24, N-(4-(2-(((1r,4r)-4-aminocyclohexyl)amino)-8-ethylquinazolin-6-yl)-2-fluorophenyl)-2-chlorobenzene-sulfonamide], the EC50 was < 5 nM.
For `N[C@H]1CC[C@H](Nc2ncc3cc(-c4ccc(NS(=O)(=O)c5ccccc5Cl)cc4)ccc3n2)CC1` [Compound 26, N-(4-(2-(((lr,4r) 4-aminocyclohexyl)amino)quinazolin-6-yl)phenyl)-2-chlorobenzene-sulfonamide] the value was < 5 nM.
Turning to `CCc1cc(-c2ccc(NS(=O)(=O)c3ccccc3Cl)nc2)cc2cnc(N[C@H]3CC[C@H](N)CC3)nc12` [Compound 27, N-(5-(2-(((lr,4r)-4-aminocyclohexyl)amino)-8-ethylquinazolin-6-yl)pyridin-2-yl)-2-chlorobenzene-sulfonamide], the EC50 is < 5 nM.
For `CCc1cc(-c2ccc(NS(=O)(=O)c3ccccc3Cl)cn2)cc2cnc(N[C@H]3CC[C@H](N)CC3)nc12` [Compound 28, N-(6-(2-(((1r,4r)-4-aminocyclohexyl)amino)-8-ethylquinazolin-6-yl)pyridin-3-yl)-2-chlorobenzene-sulfonamide] the value was < 5 nM.
The figure for `CCc1cc(-c2cc(NS(=O)(=O)c3ccccc3Cl)n[nH]2)cc2cnc(N[C@H]3CC[C@H](N)CC3)nc12` [Compound 29, N-(5-(2-(((lr,4r)-4-aminocyclohexyl)amino)-8-ethylquinazolin-6-yl)-1H-pyrazol-3-yl)-2-chlorobenzene-sulfonamide] is 100 to 10000 nM; for `CCc1cc(-c2ccc(NS(=O)(=O)c3ccccc3Cl)nn2)cc2cnc(N[C@H]3CC[C@H](N)CC3)nc12` [Compound 32] it is < 5 nM; for `CCc1cc(-c2ncc(NS(=O)(=O)c3ccccc3Cl)cn2)cc2cnc(N[C@H]3CC[C@H](N)CC3)nc12` [Compound 33, N-(2-(2-(((1r,4r)-4-aminocyclohexyl)amino)-8-ethylquinazolin-6-yl)pyrimidin-5-yl)-2-chlorobenzene-sulfonamide] it is < 5 nM.
The figure for `CCc1cc(NS(=O)(=O)c2ccccc2Cl)ccc1-c1cc(CC)c2nc(N[C@H]3CC[C@H](N)CC3)ncc2c1` [Compound 34, N-(4-(2-(((1r,4r)-4-aminocyclohexyl)amino)-8-ethylquinazolin-6-yl)-3-ethylphenyl)-2-chlorobenzene-sulfonamide] is 5 to 50 nM.
In the case of `CCc1cc(-c2ccc(NS(=O)(=O)c3ccccc3Cl)cc2F)cc2cnc(N[C@H]3CC[C@H](N)CC3)nc12` [Compound 35, N-(4-(2-(((lr,4r)-4-aminocyclohexyl)amino)-8-ethylquinazolin-6-yl)-3-f1uorophenyl)-2-chlorobenzene-sulfonamide], the EC50 is < 5 nM.
For `CCc1cc(-c2cc(NS(=O)(=O)c3ccccc3Cl)no2)cc2cnc(N[C@H]3CC[C@H](N)CC3)nc12` [Compound 44, N-(5-(2-(((1r,4r)-4-aminocyclohexyl)amino)-8-ethylquinazolin 6-yl)isoxazol-3-yl)-2-chlorobenzene-sulfonamide] the value was < 5 nM; for `CCc1cc(-c2cnc(NS(=O)(=O)c3ccccc3Cl)nc2OC)cc2cnc(N[C@H]3CC[C@H](N)CC3)nc12` [Compound 46, N-(5-(2-(((1r,4r)-4-aminocyclohexyl)amino)-8-ethylquinazolin-6-yl)-4-methoxypyrimidin-2-yl)-2-chlorobenzene-sulfonamide], < 5 nM.
The figure for `CCCc1cc(-c2cc(NS(=O)(=O)c3ccccc3Cl)nn2C)cc2cnc(N[C@H]3CC[C@H](N)CC3)nc12` [Compound 47, N-(5-(2-(((1r,4r)-4-aminocyclohexyl)amino)-8-propylquinazolin-6-yl)-1-methyl-1H-pyrazol-3-yl)-2-chlorobenzene-sulfonamide] is 5 to 50 nM; for `N[C@H]1CC[C@H](Nc2ncc3cc(-c4ccc(NS(=O)(=O)c5ccccc5Cl)cc4F)ccc3n2)CC1` [Compound 48, N-(4-(2-(((1r,4r)-4-aminocyclohexyl)amino)quinazolin-6-yl)-3-fluorophenyl)-2-chlorobenzene-sulfonamide] it is 5 to 50 nM; for `N[C@H]1CC[C@H](Nc2ncc3cc(-c4ncc(NS(=O)(=O)c5ccccc5Cl)cc4F)ccc3n2)CC1` [Compound 51, N-(6-(2-(((1r,4r)-4-aminocyclohexyl)amino)quinazolin-6-yl)-5-fluoropyridin-3-yl)-2-chlorobenzene-sulfonamide] it is 50 to 100 nM.
On to `CCc1cc(-c2ncc(NS(=O)(=O)c3ccccc3Cl)cc2F)cc2cnc(N[C@H]3CC[C@H](N)CC3)nc12` [Compound 52, N-(6-(2-(((1r,4r)-4-aminocyclohexyl)amino)-8-ethylquinazolin-6-yl)-5-fluoropyridin-3-yl)-2-chlorobenzene-sulfonamide], for which the EC50 was < 5 nM.
For `N[C@H]1CC[C@H](Nc2ncc3cc(-c4cc(F)c(NS(=O)(=O)c5ccccc5Cl)cc4F)ccc3n2)CC1` [Compound 53, N-(4-(2-(((1r,4r)-4-aminocyclohexyl)amino)quinazolin-6-yl)-2,5-difluorophenyl)-2-chlorobenzene-sulfonamide], the EC50 is < 5 nM.
The figure for `N[C@H]1CC[C@H](Nc2ncc3cc(-c4cnc(NS(=O)(=O)c5ccccc5Cl)c(F)c4)ccc3n2)CC1` [Compound 54, N-(5-(2-(((1r,4r)-4-aminocyclohexyl)amino)quinazolin-6-yl)-3-fluoropyridin-2-yl)-2-chlorobenzene-sulfonamide] is 5 to 50 nM; for `CCc1cc(-c2cnc(NS(=O)(=O)c3ccccc3Cl)c(F)c2)cc2cnc(N[C@H]3CC[C@H](N)CC3)nc12` [Compound 55, N-(5-(2-(((1r,4r)-4-aminocyclohexyl)amino)-8-ethylquinazolin-6-yl)-3-fluoropyridin-2-yl)-2-chlorobenzene-sulfonamide] it is < 5 nM; for `N[C@H]1CC[C@H](Nc2ncc3cc(-c4ccc(NS(=O)(=O)c5ccccc5Cl)c(F)c4F)ccc3n2)CC1` [Compound 56, N-(4-(2-(((1r,4r)-4-aminocyclohexyl)amino)quinazolin-6-yl)-2,3-difluorophenyl)-2-chlorobenzene-sulfonamide] it is < 5 nM.
On to `N[C@H]1CC[C@H](Nc2cc3ccc(-c4ccc(NS(=O)(=O)c5ccccc5Cl)c(F)c4)cc3cn2)CC1` [Compound 57, N-(4-(3-(((1r,4r)-4-aminocyclohexyl)amino)isoquinolin-7-yl)-2-fluorophenyl)-2-chlorobenzene-sulfonamide], for which the concentration for a half-maximal effect (EC50) is < 5 nM.
The figure for `CCc1cc(-c2ccc(NS(=O)(=O)c3ccccc3Cl)c(F)c2)cc2cnc(N[C@H]3CC[C@H](NC(C)=O)CC3)nc12` [Compound 59, N-((1r,4)-4-((6-(4-((2-chlorophenyl)sulfonamido)-3-fluorophenyl)-8-ethylquinazolin-2-yl)amino)cyclohexyl) acetamide] is 50 to 100 nM; for `CCc1cc(-c2ccc(NS(=O)(=O)c3ccccc3Cl)c(F)c2)cc2cnc(N[C@H]3CC[C@H](NC)CC3)nc12` [Compound 60, 2-chloro-N-(4-(8-ethyl-2-(((1r,4)-4-(methylamino)cyclohexyl)amino)quinazolin-6-yl)-2-fluorophenyl) benzene-sulfonamide] it is < 5 nM.
For `CCc1cc(-c2ccc(NS(=O)(=O)c3ccccc3Cl)nn2)cc2cnc(N[C@H]3CC[C@H](NC)CC3)nc12` [Compound 61, 2-chloro-N-(6-(8-ethyl-2-(((lr,4r)-4-(methylamino)cyclohexyl)amino)quinazolin-6-yl)pyridazin-3-yl)benzene-sulfonamide] the value was < 5 nM; for `N[C@H]1CC[C@H](Nc2ncc3cc(-c4c(F)cc(NS(=O)(=O)c5ccccc5Cl)cc4F)ccc3n2)CC1` [Compound 62, N-(4-(2-(((1r,4r)-4-aminocyclohexyl)amino)quinazolin-6-yl)-3,5-difluorophenyl)-2-chlorobenzene-sulfonamide], 5 to 50 nM; for `CCc1cc(-c2ccc(NS(=O)(=O)c3ccccc3Cl)nn2)cc2cnc(N[C@H]3CC[C@H](N(C)C)CC3)nc12` [Compound 64, 2-chloro-N-(6-(2-(((1r,4r)-4-(dimethylamino)cyclohexyl)amino)-8-ethylquinazolin-6-yl)pyridazin-3-yl)benzene-sulfonamide], < 5 nM.
The figure for `CCc1cc(-c2nnc(NS(=O)(=O)c3ccccc3Cl)cc2OC)cc2cnc(N[C@H]3CC[C@H](N)CC3)nc12` [Compound 65, N-(6--(2-(((lr,4r)-4-aminocyclohexyl)amino)-8-ethylquinazolin-6-yl)-5-methoxypyridazin-3-yl)-2-chlorobenzene-sulfonamide] is 5 to 50 nM.
